We go through 21 compounds from patent US9000159B2 (Glenmark Pharmaceuticals, S.A., priority 2009, dated 2015).

The target in the experiment is T1, Human TRPA1 (Homo sapiens, UniProt O75762).
T1 construct: expressed in transfected cells; host or cells: CHO cells
Put plainly: 45Calcium uptake assay: inhibition of AITC induced cellular uptake of radioactive calcium. Conditions: AITC (30 μM) induced 45Ca uptake, Human TRPA1 expressing CHO cells; for inhibition at 1 µM: 1.0 μM test compound, read-out: Percentage inhibition at 1.0 μM; for inhibition at 10 µM: 10.0 μM test compound, read-out: Percentage inhibition at 10.0 μM; for IC50: read-out: Human IC50 value (range). It is filed as cell-based. The essentials:
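CHO cells stably expressing human TRPA1 (~50,000/well) preincubated 10 min with compound (0.5% DMSO, medium with 0.1% BSA, 1.8 mM CaCl2), then 30 μM AITC plus 5 μCi/ml 45Ca2+ for 3 min. Lysate radioactivity counted by scintillation; IC50 by nonlinear regression of % maximal uptake.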

T1 sequence (O75762 whole entry): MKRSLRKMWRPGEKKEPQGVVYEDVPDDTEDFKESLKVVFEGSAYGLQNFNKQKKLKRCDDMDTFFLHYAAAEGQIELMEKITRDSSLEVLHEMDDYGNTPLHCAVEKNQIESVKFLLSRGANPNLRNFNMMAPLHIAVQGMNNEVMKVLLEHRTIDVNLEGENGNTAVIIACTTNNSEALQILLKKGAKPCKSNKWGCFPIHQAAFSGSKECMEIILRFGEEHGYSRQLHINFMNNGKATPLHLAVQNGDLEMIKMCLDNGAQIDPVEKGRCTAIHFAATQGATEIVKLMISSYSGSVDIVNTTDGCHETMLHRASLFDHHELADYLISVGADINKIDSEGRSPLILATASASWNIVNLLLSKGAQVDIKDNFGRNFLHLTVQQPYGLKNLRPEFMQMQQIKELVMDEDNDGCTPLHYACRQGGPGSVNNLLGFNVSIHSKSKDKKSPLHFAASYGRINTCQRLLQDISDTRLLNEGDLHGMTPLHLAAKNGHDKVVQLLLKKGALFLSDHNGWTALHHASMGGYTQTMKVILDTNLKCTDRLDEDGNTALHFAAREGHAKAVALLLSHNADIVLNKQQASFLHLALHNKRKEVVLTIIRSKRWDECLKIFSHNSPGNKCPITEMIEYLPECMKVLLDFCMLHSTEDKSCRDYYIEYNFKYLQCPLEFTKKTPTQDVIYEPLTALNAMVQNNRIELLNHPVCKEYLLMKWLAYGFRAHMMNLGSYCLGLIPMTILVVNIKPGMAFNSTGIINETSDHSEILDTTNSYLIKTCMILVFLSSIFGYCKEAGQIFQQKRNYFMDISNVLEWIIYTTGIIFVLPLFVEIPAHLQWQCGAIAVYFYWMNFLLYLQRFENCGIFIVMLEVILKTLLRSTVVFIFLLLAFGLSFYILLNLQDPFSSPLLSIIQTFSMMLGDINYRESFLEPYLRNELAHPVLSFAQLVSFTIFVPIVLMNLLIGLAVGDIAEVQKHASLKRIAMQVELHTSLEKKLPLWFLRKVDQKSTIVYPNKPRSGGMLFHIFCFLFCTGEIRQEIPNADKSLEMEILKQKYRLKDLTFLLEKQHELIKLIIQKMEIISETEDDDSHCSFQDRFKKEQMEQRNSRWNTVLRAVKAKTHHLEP

For the compound `Cn1nc2c(c1CC(=O)Nc1nc(-c3cccc(OC(F)(F)F)c3)cs1)c(=O)n(C)c(=O)n2C` [Example 49, N-{4-[3-(Trifluoromethoxy)phenyl]-1,3-thiazol-2-yl}-2-(2,5,7-trimethyl-4,6-dioxo-4,5,6,7-tetrahydro-2H-pyrazolo[3,4-d]pyrimidin-3-yl)acetamide], the inhibition (as a rule, the change of the read-out against control, counted positive when it falls) at 1 µM amounted to 52.3% and the inhibition at 10 µM came to 88.5%.

Consider `Cn1nc2c(c1CC(=O)Nc1nc(-c3ccc(F)cc3F)cs1)c(=O)n(C)c(=O)n2C` [Example 50, N-[4-(2,4-Difluorophenyl)-1,3-thiazol-2-yl]-2-(2,5,7-trimethyl-4,6-dioxo-4,5,6,7-tetrahydro-2H-pyrazolo[3,4-d]pyrimidin-3-yl)acetamide], for which the inhibition at 1 µM worked out at 0% and the inhibition at 10 µM came out at 19.8%.

In the case of `Cn1nc2c(c1CC(=O)Nc1nc(-c3ccc(F)c(F)c3)cs1)c(=O)n(C)c(=O)n2C` [Example 51, N-[4-(3,4-Difluorophenyl)-1,3-thiazol-2-yl]-2-(2,5,7-trimethyl-4,6-dioxo-4,5,6,7-tetrahydro-2H-pyrazolo[3,4-d]pyrimidin-3-yl)acetamide], the inhibition at 1 µM came to 57.5% and the inhibition at 10 µM was determined as 79.7%.

On to `Cn1nc2c(c1CC(=O)Nc1nc(-c3cc(F)cc(F)c3)cs1)c(=O)n(C)c(=O)n2C` [Example 52, N-[4-(3,5-Difluorophenyl)-1,3-thiazol-2-yl]-2-(2,5,7-trimethyl-4,6-dioxo-4,5,6,7-tetrahydro-2H-pyrazolo[3,4-d]pyrimidin-3-yl)acetamide], for which the inhibition at 1 µM turned out to be 37.8% and the inhibition at 10 µM stood at 64.8%.

As for `Cn1nc2c(c1CC(=O)Nc1nc(-c3ccc(F)c(C(F)(F)F)c3)cs1)c(=O)n(C)c(=O)n2C` [Example 53, N-{4-[4-Fluoro-3-(trifluoromethyl)phenyl]-1,3-thiazol-2-yl}-2-(2,5,7-trimethyl-4,6-dioxo-4,5,6,7-tetrahydro-2H-pyrazolo[3,4-d]pyrimidin-3-yl)acetamide], the inhibition at 1 µM was 97.2%, the inhibition at 10 µM was determined as 98.6% and the IC50 (usually the midpoint of a concentration-inhibition curve) was less than 50 nM.

Turning to `Cn1nc2c(c1CC(=O)Nc1nc(-c3ccc(C(F)(F)F)c(F)c3)cs1)c(=O)n(C)c(=O)n2C` [Example 54, N-[4-(3-Fluoro-4-trifluoromethylphenyl)-1,3-thiazol-2-yl]-2-(2,5,7-trimethyl-4,6-dioxo-4,5,6,7-tetrahydro-2H-pyrazolo[3,4-d]pyrimidin-3-yl)acetamide], the inhibition at 1 µM was determined as 97.7%, the inhibition at 10 µM turned out to be 99.6% and the IC50 is less than 50 nM.

With `Cn1nc2c(c1CC(=O)Nc1nc(-c3cccc(C(F)(F)F)c3F)cs1)c(=O)n(C)c(=O)n2C` [Example 55, N-{4-[2-Fluoro-3-(trifluoromethyl)phenyl]-1,3-thiazol-2-yl}-2-(2,5,7-trimethyl-4,6-dioxo-4,5,6,7-tetrahydro-2H-pyrazolo[3,4-d]pyrimidin-3-yl)acetamide], the inhibition at 1 µM is 92.2%, the inhibition at 10 µM was determined as 99.2% and the IC50 fell in the range of 50 to 100 nM.

As for `Cn1nc2c(c1CC(=O)Nc1nc(-c3ccc(C(F)(F)F)cc3F)cs1)c(=O)n(C)c(=O)n2C` [Example 56, N-{4-[2-Fluoro-4-(trifluoromethyl)phenyl]-1,3-thiazol-2-yl}-2-(2,5,7-trimethyl-4,6-dioxo-4,5,6,7-tetrahydro-2H-pyrazolo[3,4-d]pyrimidin-3-yl)acetamide], the inhibition at 1 µM was 96.2%, the inhibition at 10 µM was determined as 98.2% and the IC50 was less than 50 nM.

On to `Cn1nc2c(c1CC(=O)Nc1nc(-c3cc(C(F)(F)F)ccc3F)cs1)c(=O)n(C)c(=O)n2C` [Example 57, N-{4-[2-Fluoro-5-(trifluoromethyl)phenyl]-1,3-thiazol-2-yl}-2-(2,5,7-trimethyl-4,6-dioxo-4,5,6,7-tetrahydro-2H-pyrazolo[3,4-d]pyrimidin-3-yl)acetamide], for which the inhibition at 1 µM turned out to be 43% and the inhibition at 10 µM is 49.8%.

In the case of `Cn1nc2c(c1CC(=O)Nc1nc(-c3cc(F)cc(C(F)(F)F)c3)cs1)c(=O)n(C)c(=O)n2C` [Example 58, N-{4-[3-Fluoro-5-(trifluoromethyl)phenyl]-1,3-thiazol-2-yl}-2-(2,5,7-trimethyl-4,6-dioxo-4,5,6,7-tetrahydro-2H-pyrazolo[3,4-d]pyrimidin-3-yl)acetamide], the inhibition at 1 µM stood at 94.6%, the inhibition at 10 µM was 99.2% and the half-maximal inhibitory concentration (IC50) was less than 50 nM.

`Cn1nc2c(c1CC(=O)Nc1nc(-c3ccc(OC(F)(F)F)c(F)c3)cs1)c(=O)n(C)c(=O)n2C` [Example 59, N-{4-[3-Fluoro-4-(trifluoromethoxy)phenyl]-1,3-thiazol-2-yl}-2-(2,5,7-trimethyl-4,6-dioxo-4,5,6,7-tetrahydro-2H-pyrazolo[3,4-d]pyrimidin-3-yl)acetamide]: the inhibition at 1 µM is 97.6%, the inhibition at 10 µM is 99.3% and the IC50 is less than 50 nM.

`Cn1nc2c(c1CC(=O)Nc1nc(-c3ccc(F)c(OC(F)(F)F)c3)cs1)c(=O)n(C)c(=O)n2C` [Example 60, N-{4-[4-Fluoro-3-(trifluoromethoxy)phenyl]-1,3-thiazol-2-yl}-2-(2,5,7-trimethyl-4,6-dioxo-4,5,6,7-tetrahydro-2H-pyrazolo[3,4-d]pyrimidin-3-yl)acetamide]: the inhibition at 1 µM was determined as 93.4%, the inhibition at 10 µM worked out at 97.2% and the IC50 is less than 50 nM.

Regarding `Cn1nc2c(c1CC(=O)Nc1nc(-c3ccc(OC(F)F)c(F)c3)cs1)c(=O)n(C)c(=O)n2C` [Example 61, N-{4-[4-(Difluoromethoxy)-3-fluorophenyl]-1,3-thiazol-2-yl}-2-(2,5,7-trimethyl-4,6-dioxo-4,5,6,7-tetrahydro-2H-pyrazolo[3,4-d]pyrimidin-3-yl)acetamide], the inhibition at 1 µM came out at 86%, the inhibition at 10 µM stood at 98.3% and the IC50 lay within 50 to 100 nM.

For the compound `Cn1nc2c(c1CC(=O)Nc1nc(-c3ccc(C(F)(F)F)c(F)c3F)cs1)c(=O)n(C)c(=O)n2C` [Example 62, N-{4-[2,3-difluoro-4-(trifluoromethyl)phenyl]-1,3-thiazol-2-yl}-2-(2,5,7-trimethyl-4,6-dioxo-4,5,6,7-tetrahydro-2H-pyrazolo[3,4-d]pyrimidin-3-yl)acetamide], the inhibition at 1 µM is 90.3%, the inhibition at 10 µM was determined as 95.8% and the IC50 is less than 50 nM.

As for `Cn1nc2c(c1CC(=O)Nc1nc(-c3ccc(F)c(C(F)(F)F)c3F)cs1)c(=O)n(C)c(=O)n2C` [Example 63, N-{4-[2,4-Difluoro-3-(trifluoromethyl)phenyl]-1,3-thiazol-2-yl}-2-(2,5,7-trimethyl-4,6-dioxo-4,5,6,7-tetrahydro-2H-pyrazolo[3,4-d]pyrimidin-3-yl)acetamide], the inhibition at 1 µM was 95.1%, the inhibition at 10 µM is 99.7% and the IC50 was less than 50 nM.

On to `Cn1nc2c(c1CC(=O)Nc1nc(-c3cc(F)c(OC(F)F)c(F)c3)cs1)c(=O)n(C)c(=O)n2C` [Example 64, N-{4-[4-(Difluoromethoxy)-3,5-difluorophenyl]-1,3-thiazol-2-yl}-2-(2,5,7-trimethyl-4,6-dioxo-4,5,6,7-tetrahydro-2H-pyrazolo[3,4-d]pyrimidin-3-yl)acetamide], for which the inhibition at 1 µM turned out to be 97.8%, the inhibition at 10 µM was determined as 98.3% and the IC50 is less than 50 nM.

Regarding `Cn1nc2c(c1CC(=O)Nc1cc(-c3ccc(Br)cc3)on1)c(=O)n(C)c(=O)n2C` [Example 65, N-[5-(4-Bromophenyl)isoxazol-3-yl]-2-(2,5,7-trimethyl-4,6-dioxo-4,5,6,7-tetrahydro-2H-pyrazolo[3,4-d]pyrimidin-3-yl)acetamide], the inhibition at 1 µM was 12.5% and the inhibition at 10 µM worked out at 24.6%.

Regarding `Cn1nc2c(c1CC(=O)Nc1nc3cc(OC(F)(F)F)ccc3s1)c(=O)n(C)c(=O)n2C` [Example 66, N-[5-(Trifluoromethoxy)-1,3-benzothiazol-2-yl]-2-(2,5,7-trimethyl-4,6-dioxo-4,5,6,7-tetrahydro-2H-pyrazolo[3,4-d]pyrimidin-3-yl)acetamide], the inhibition at 1 µM was 45% and the inhibition at 10 µM is 71.5%.

Consider `Cn1c(=O)c2c(cnn2CC(=O)Nc2nc(-c3ccc(Cl)cc3)cs2)n(C)c1=O` [Example 67, N-[4-(4-Chlorophenyl)-1,3-thiazol-2-yl]-2-(4,6-dimethyl-5,7-dioxo-4,5,6,7-tetrahydro-1H-pyrazolo[4,3-d]pyrimidin-1-yl)acetamide], for which the inhibition at 1 µM turned out to be 57.6% and the inhibition at 10 µM was 98.4%.

`Cn1c(=O)c2c(cnn2CC(=O)Nc2nc(-c3ccc(C(F)(F)F)c(F)c3)cs2)n(C)c1=O` [Example 68, 2-(4,6-Dimethyl-5,7-dioxo-4,5,6,7-tetrahydro-1H-pyrazolo[4,3-d]pyrimidin-1-yl)-N-{4-[3-fluoro-4-(trifluoromethyl)phenyl]-1,3-thiazol-2-yl}acetamide]: the inhibition at 1 µM amounted to 91.3%, the inhibition at 10 µM came out at 99.4% and the IC50 is greater than 100 nM.

In the case of `Cn1c(=O)c2c(cnn2CC(=O)Nc2nc(-c3ccc(OCC(C)(C)C)c(F)c3)cs2)n(C)c1=O` [Example 69, N-{4-[4-(2,2-Dimethylpropoxy)-3-fluorophenyl]-1,3-thiazol-2-yl}-2-(4,6-dimethyl-5,7-dioxo-4,5,6,7-tetrahydro-1H-pyrazolo[4,3-d]pyrimidin-1-yl)acetamide], the inhibition at 1 µM was determined as 97.3%, the inhibition at 10 µM was determined as 99.8% and the IC50 is less than 50 nM.
